≈ marks a conversion by molar mass, not a printed value. Read-outs that look alike come from different tables or passages of the source.
Tests used:
[1] = Microsome Stability (15 min), rat; assay type: in vitro ADME; details: microsomes, Phase I (NADPH), read-out: Microsome Stability (15 min) T ½ Phase I rat
[2] = PAMPA permeability pH 7.4
[3] = biological target: PI3K alpha (Homo sapiens, UniProt P42336); experiment: PI3K-alpha Fluorescence Polarization Assay; assay type: biochemical
[4] = Solubility pH 7.4; details: pH 7.4, aqueous buffer
[5] = Microsome Stability (15 min), human; assay type: in vitro ADME; details: microsomes, Phase I (NADPH), read-out: Microsome Stability (15 min) T ½ Phase I human
[6] = Buffer Stability (37° C.)
[7] = Plasma Stability (37° C.), rat
[8] = Microsome Stability (15 min), nude mouse; assay type: in vitro ADME; details: microsomes, Phase I (NADPH), read-out: Microsome Stability (15 min) T ½ Phase I nude mouse
[9] = In vivo blood/plasma and tumor levels of prodrug and metabolites after 50 mg, kg po; details: 50 mg

Sequence of PI3K alpha (P42336 whole entry, species assumed): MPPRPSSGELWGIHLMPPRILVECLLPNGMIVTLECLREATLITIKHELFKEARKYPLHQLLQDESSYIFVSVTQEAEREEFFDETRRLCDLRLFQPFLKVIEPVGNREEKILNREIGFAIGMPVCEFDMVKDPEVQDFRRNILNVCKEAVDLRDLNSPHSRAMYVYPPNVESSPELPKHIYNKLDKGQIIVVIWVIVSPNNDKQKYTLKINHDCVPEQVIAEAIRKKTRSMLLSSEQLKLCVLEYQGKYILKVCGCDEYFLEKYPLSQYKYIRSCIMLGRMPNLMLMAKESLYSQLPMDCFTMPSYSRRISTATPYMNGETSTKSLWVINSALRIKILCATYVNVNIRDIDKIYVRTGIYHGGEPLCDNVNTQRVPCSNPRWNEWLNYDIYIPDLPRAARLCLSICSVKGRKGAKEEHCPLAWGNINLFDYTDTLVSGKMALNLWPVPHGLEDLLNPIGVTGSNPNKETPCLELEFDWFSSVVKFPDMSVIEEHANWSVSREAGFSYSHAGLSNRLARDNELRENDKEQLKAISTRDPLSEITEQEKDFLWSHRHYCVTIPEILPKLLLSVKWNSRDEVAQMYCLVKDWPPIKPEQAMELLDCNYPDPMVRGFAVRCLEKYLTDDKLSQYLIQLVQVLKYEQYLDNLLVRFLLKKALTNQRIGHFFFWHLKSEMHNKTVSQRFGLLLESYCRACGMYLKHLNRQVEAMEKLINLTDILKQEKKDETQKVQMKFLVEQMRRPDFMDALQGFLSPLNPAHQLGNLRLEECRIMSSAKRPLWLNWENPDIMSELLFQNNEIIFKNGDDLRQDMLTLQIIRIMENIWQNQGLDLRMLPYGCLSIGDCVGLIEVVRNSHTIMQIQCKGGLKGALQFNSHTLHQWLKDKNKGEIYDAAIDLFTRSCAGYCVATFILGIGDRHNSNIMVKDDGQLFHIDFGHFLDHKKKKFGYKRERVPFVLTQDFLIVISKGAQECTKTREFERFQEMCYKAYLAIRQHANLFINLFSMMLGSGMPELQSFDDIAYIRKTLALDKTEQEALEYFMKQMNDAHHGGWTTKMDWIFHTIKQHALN
Sequence of PI3K alpha (P27986 whole entry partner, species assumed): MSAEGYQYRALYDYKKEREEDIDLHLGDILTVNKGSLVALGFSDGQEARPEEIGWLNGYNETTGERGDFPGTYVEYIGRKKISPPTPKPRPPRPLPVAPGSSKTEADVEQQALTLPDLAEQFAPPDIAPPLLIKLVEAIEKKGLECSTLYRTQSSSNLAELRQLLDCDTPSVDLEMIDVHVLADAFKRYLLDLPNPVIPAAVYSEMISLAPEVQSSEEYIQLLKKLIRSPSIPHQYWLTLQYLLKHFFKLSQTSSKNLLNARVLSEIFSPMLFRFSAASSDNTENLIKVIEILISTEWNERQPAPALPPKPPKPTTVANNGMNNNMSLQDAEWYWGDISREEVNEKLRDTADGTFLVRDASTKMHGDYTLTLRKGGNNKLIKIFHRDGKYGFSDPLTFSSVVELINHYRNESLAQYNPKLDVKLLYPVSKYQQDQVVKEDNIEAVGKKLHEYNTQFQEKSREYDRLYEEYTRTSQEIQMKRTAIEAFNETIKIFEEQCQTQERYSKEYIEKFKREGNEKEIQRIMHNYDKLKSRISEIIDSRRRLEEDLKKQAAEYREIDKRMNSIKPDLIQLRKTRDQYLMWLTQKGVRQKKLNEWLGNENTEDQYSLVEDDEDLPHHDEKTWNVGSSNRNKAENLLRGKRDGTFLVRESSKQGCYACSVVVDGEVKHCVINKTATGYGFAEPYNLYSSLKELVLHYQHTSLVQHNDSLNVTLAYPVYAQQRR

Row | Structure (SMILES) | half-life [1] [min] | PAMPA Pe [2] | IC50 ([3]; read-out: PI3K alpha Mean IC50) [µM] | solubility [4] [µg/mL] | half-life [5] [min] | Buffer Stability (37° C.) % Remaining (at 16-23 hours) SGF [6] [%] | Buffer Stability (37° C.) % Remaining (at 16-23 hours) SIF [6] [%] | Buffer Stability (37° C.) % Remaining (at 16-23 hours) pH 1 [6] [%] | Buffer Stability (37° C.) % Remaining (at 16-23 hours) pH 4.5 [6] [%] | Buffer Stability (37° C.) % Remaining (at 16-23 hours) pH 6.6 [6] [%] | Buffer Stability (37° C.) % Remaining (at 16-23 hours) pH 7.4 [6] [%] | Buffer Stability (37° C.) % Remaining (at 16-23 hours) pH 9 [6] [%] | IC50 [3] [µM] | Plasma Stability (37° C.) % Remaining (3-3.5 hours) rat [7] [%] | half-life [8] [min] | half-life ([8]; nude, mouse) [min] | plasma prodrug concentration ([9]; 0.5 h) | plasma prodrug concentration ([9]; 2 h) | plasma prodrug concentration ([9]; 6 h (third value))
1 | Cn1cc(/C=C2\Oc3cc(O)cc(O)c3C2=O)c2c(-c3ccccc3)cccc21 [(2Z)-4,6-dihydroxy-2-[(1-methyl-4-phenyl-1H-indol-3-yl)methylene]-1-benzofuran-3(2H)-one] | 21 | 0.04 10e−6 cm/s |  |  |  |  |  |  |  |  |  |  |  |  |  |  |  |  | 
2 | COc1ccc2[nH]c(-c3ccccc3)c(/C=C3\Oc4cc(OC(=O)c5ccccc5)cc(OC(=O)c5ccccc5)c4C3=O)c2c1 [Example 6, (2Z)-2-[(5-methoxy-2-phenyl-1H-indol-3-yl)methylene]-3-oxo-2,3-dihydro-1-benzofuran-4,6-diyl dibenzoate] |  | 0.12 10e−6 cm/s | 0.472 |  |  |  |  |  |  |  |  |  |  |  |  |  |  |  | 
3 | COC(=O)Oc1cc(OC(=O)OC)c2c(c1)O/C(=C\c1cn(CCCN(C)C)c3ccc(OC)cc13)C2=O [Example 13, (2Z)-2-({1-[3-(dimethylamino)propyl]-5-methoxy-1H-indol-3-yl}methylene)-3-oxo-2,3-dihydro-1-benzofuran-4,6-diyl dimethyl biscarbonate] |  | 0.19 10e−6 cm/s | 0.313 | 43 (≈ 82 µM) |  |  |  |  |  |  |  |  |  |  |  |  |  |  | 
4 | COc1ccc2c(c1)c(/C=C1\Oc3cc(OC(C)=O)cc(OC(C)=O)c3C1=O)cn2CCCN(C)C [Example 15, (2Z)-2-({1-[3-(dimethylamino)propyl]-5-methoxy-1H-indol-3-yl}methylene)-3-oxo-2,3-dihydro-1-benzofuran-4,6-diyl diacetate] |  | 0.24 10e−6 cm/s | 0.082 | 49 |  |  |  |  |  |  |  |  |  |  |  |  |  |  | 
5 | COc1ccc2c(c1)c(/C=C1\Oc3cc(OC(=O)c4ccccc4)cc(OC(=O)c4ccccc4)c3C1=O)c(C)n2CCN1CCN(C)CC1 [Example 16, (2Z)-2-({5-methoxy-2-methyl-1-[2-(4-methylpiperazin-1-yl)ethyl]-1H-indol-3-yl}methylene)-3-oxo-2,3-dihydro-1-benzofuran-4,6-diyl dibenzoate] | 10 | 0 10e−6 cm/s | 8.53 |  | > 30 | 99 | 64 | 96 | 73 | 75 | 4 | 0 |  |  |  |  |  |  | 
6 | COc1ccc2[nH]c(-c3ccccc3)c(/C=C3\Oc4cc(OC(=O)N(C)C)ccc4C3=O)c2c1 [Example 18, (2Z)-2-[(5-methoxy-2-phenyl-1H-indol-3-yl)methylene]-3-oxo-2,3-dihydro-1-benzofuran-6-yl dimethylcarbamate] | 28 | Undetected |  |  | 13 | 100 | 101 | 99 | 100 | 100 | 100 | 99 | 6.35 | 0 | > 30 |  |  |  | 
7 | COc1ccc2[nH]c(-c3ccccc3)c(/C=C3\Oc4cc(OC(=O)Oc5ccccc5)ccc4C3=O)c2c1 [Example 19, (2Z)-2-[(5-methoxy-2-phenyl-1H-indol-3-yl)methylene]-3-oxo-2,3-dihydro-1-benzofuran-6-yl phenyl carbonate] | > 30 | 0 10e−6 cm/s | 0.181 |  | 28 | 106 | 35 | 104 | 74 | 60 | 54 | 0 |  | 10 |  | > 30 |  |  | 
8 | COc1ccc2[nH]c(-c3ccccc3)c(/C=C3\Oc4cc(OC(=O)N(c5ccccc5)c5ccccc5)ccc4C3=O)c2c1 [Example 20, (2Z)-2-[(5-methoxy-2-phenyl-1H-indol-3-yl)methylene]-3-oxo-2,3-dihydro-1-benzofuran-6-yl diphenylcarbamate] | > 30 | Undetected | > 10 |  | > 30 | 100 | 100 | 100 | 100 | 100 | 100 | 95 |  | 91 | > 30 |  |  |  | 
9 | COc1ccc2c(c1)c(/C=C1\Oc3cc(OC(=O)N(c4ccccc4)c4ccccc4)cc(OC(=O)N(c4ccccc4)c4ccccc4)c3C1=O)cn2CCCN(C)C [Example 21, (2Z)-2-({1-[3-(dimethylamino)propyl]-5-methoxy-1H-indol-3-yl}methylene)-3-oxo-2,3-dihydro-1-benzofuran-4,6-diyl bis(diphenylcarbamate)] |  | 0 10e−6 cm/s |  |  |  | 99 | 45 | 118 | 103 | 91 | 98 | 87 | > 10 | 107 | > 30 |  |  |  | 
10 | COC(=O)Oc1cc(OC(=O)OC)c2c(c1)O/C(=C\c1c(-c3ccccc3)[nH]c3ccc(OC)cc13)C2=O [Example 22, (2Z)-2-[(5-methoxy-2-phenyl-1H-indol-3-yl)methylene]-3-oxo-2,3-dihydro-1-benzofuran-4,6-diyl dimethyl biscarbonate] |  | 0 10e−6 cm/s | 0.013 |  | 3 | 87 | 0 | 80 | 37 | 42 | 0 | 0 |  | 0 |  | 4 |  |  | 
11 | COc1ccc2c(c1)c(/C=C1\Oc3cc(OC(=O)c4ccccc4)cc(OC(=O)c4ccccc4)c3C1=O)cn2CCCN(C)C [Example 24, (2Z)-2-({1-[3-(dimethylamino)propyl]-5-methoxy-1H-indol-3-yl}methylene)-3-oxo-2,3-dihydro-1-benzofuran-4,6-diyl dibenzoate] | 12 | 0 10e−6 cm/s | > 10 |  | 22 | 104 | 0 | 86 | 71 | 50 | 5 | 0 |  | 6 |  |  |  |  | 
12 | COc1ccc2c(c1)c(/C=C1\Oc3cc(OC(=O)N(C(C)C)C(C)C)cc(OC(=O)N(C(C)C)C(C)C)c3C1=O)c(C)n2CCN1CCN(C)CC1 [Example 28, (2Z)-2-({5-methoxy-2-methyl-1-[2-(4-methylpiperazin-1-yl)ethyl]-1H-indol-3-yl}methylene)-3-oxo-2,3-dihydro-1-benzofuran-4,6-diyl bis(diisopropylcarbamate)] |  | 0.05 10e−6 cm/s |  |  | 8 |  |  |  |  |  |  |  | 9.5 |  | 24 |  | 1141, ng, ml | 940, ng, ml | 1106 ng, ml
13 | CCOP(=O)(OCC)Oc1cc2c(c(OP(=O)(OCC)OCC)c1)C(=O)/C(=C/c1c(-c3ccccc3)[nH]c3ccc(OC)cc13)O2 [Example 32, tetraethyl (2Z)-2-[(5-methoxy-2-phenyl-1H-indol-3-yl)methylene]-3-oxo-2,3-dihydro-1-benzofuran-4,6-diyl bis(phosphate)] | 7 | 0 10e−6 cm/s |  |  | 2 |  |  |  |  |  |  |  | 11 |  |  |  |  |  | 
14 | CCOP(=O)(OCC)Oc1ccc2c(c1)O/C(=C\c1c(-c3ccccc3)[nH]c3ccc(OC)cc13)C2=O [Example 34, diethyl (2Z)-2-[(5-methoxy-2-phenyl-1H-indol-3-yl)methylene]-3-oxo-2,3-dihydro-1-benzofuran-6-yl phosphate] | 17 | 0 10e−6 cm/s |  |  | 26 |  |  |  |  |  |  |  | 5.67 |  | > 30 |  | 6 ng, ml | 2 ng, ml | bql
